# In patent US7205123B2, “Recombinant materials for carotenoid production” (DSM IP Assets B.V., priority 1995, dated 2007):
# Tests used:
# [1] = system: Phaffia transformant G418-1; assay: Survival of Phaffia transformant G418-1 on YepD agar with increasing G418; format: cell-based, Phaffia rhodozyma
# Procedure: To determine the expression of the G418 resistance gene in pGB-Ph9, transformant G418-1 (EP 0 590 707 A1) was exposed to increasing concentrations of G418.
# Two dilutions of a G418-1 culture were plated onto YepD agar containing 0–1000 μg/ml G418 (Table 1).
# [2] = system: Phaffia (CBS6938); assay: Survival of untransformed Phaffia on YepD agar with increasing G418; format: cell-based, Phaffia rhodozyma; conditions: Dil. 0 (OD600 = 5)
smiles,measurement,setting,value
CN[C@@H]1[C@@H](O)[C@@H](O[C@@H]2[C@@H](O)[C@H](O[C@H]3O[C@H]([C@@H](C)O)[C@@H](O)[C@H](O)[C@H]3N)[C@@H](N)C[C@H]2N)OC[C@]1(C)O [G418],Survival on YepD agar medium,"[1]; G418 200 μg/ml, Dil. 10^-4 (OD600 = 7)",>300
same,Survival on YepD agar medium,"[1]; G418 200 μg/ml, Dil. 10^-5 (OD600 = 7)",70
same,Survival on YepD agar medium,"[1]; G418 300 μg/ml, Dil. 10^-4 (OD600 = 7)",>300
same,Survival on YepD agar medium,"[1]; G418 300 μg/ml, Dil. 10^-5 (OD600 = 7)",61
same,Survival on YepD agar medium,"[1]; G418 400 μg/ml, Dil. 10^-4 (OD600 = 7)",212
same,Survival on YepD agar medium,"[1]; G418 400 μg/ml, Dil. 10^-5 (OD600 = 7)",13
same,Survival on YepD agar medium,"[1]; G418 500 μg/ml, Dil. 10^-4 (OD600 = 7)",10
same,Survival on YepD agar medium,"[1]; G418 500 μg/ml, Dil. 10^-5 (OD600 = 7)",2
same,plated cells survived,[1]; G418 600 μg/ml,less than 1%
same,Survival on YepD agar medium,"[1]; G418 600 μg/ml, Dil. 10^-4 (OD600 = 7)",0
same,Survival on YepD agar medium,"[1]; G418 600 μg/ml, Dil. 10^-5 (OD600 = 7)",0
same,Survival on YepD agar medium,"[1]; G418 700 μg/ml, Dil. 10^-4 (OD600 = 7)",0
same,Survival on YepD agar medium,"[1]; G418 700 μg/ml, Dil. 10^-5 (OD600 = 7)",0
same,Survival on YepD agar medium,"[1]; G418 800 μg/ml, Dil. 10^-4 (OD600 = 7)",0
same,Survival on YepD agar medium,"[1]; G418 800 μg/ml, Dil. 10^-5 (OD600 = 7)",0
same,Survival on YepD agar medium,"[1]; G418 900 μg/ml, Dil. 10^-4 (OD600 = 7)",0
same,Survival on YepD agar medium,"[1]; G418 900 μg/ml, Dil. 10^-5 (OD600 = 7)",0
same,Survival on YepD agar medium,"[1]; G418 1000 μg/ml, Dil. 10^-4 (OD600 = 7)",0
same,Survival on YepD agar medium,"[1]; G418 1000 μg/ml, Dil. 10^-5 (OD600 = 7)",0
same,Survival on YepD agar medium,[2]; G418 200 μg/ml,0
same,Survival on YepD agar medium,[2]; G418 300 μg/ml,0
same,Survival on YepD agar medium,[2]; G418 400 μg/ml,0
same,Survival on YepD agar medium,[2]; G418 500 μg/ml,0
same,Survival on YepD agar medium,[2]; G418 600 μg/ml,0
same,Survival on YepD agar medium,[2]; G418 700 μg/ml,0
same,Survival on YepD agar medium,[2]; G418 800 μg/ml,0
same,Survival on YepD agar medium,[2]; G418 900 μg/ml,0
same,Survival on YepD agar medium,[2]; G418 1000 μg/ml,0
